Source: patent US8524755B2 (priority 2009, dated 2013)

Tests used:
Adenosine A2A (h) = target: T1, Adenosine A2A (h) (Homo sapiens, UniProt P29274); assay: Binding A2A (h) (ag); conditions: read-out: % Inhibition of Control Specific Binding @ 10 μM
T1 construct: expressed in transfected cells; host or cells: HEK-293 cells
Description: (§1) Radioligand binding assay methods utilized to measure the activity of compounds of the invention will be familiar to those skilled in the art. In each assay case, the assay components such as, for example, the cell-type, ligand, reference compound and the like, will be familiar to practitioners of such an assay.
(§2) Analysis and Expression of Results: Compounds of the invention were tested in the biochemical assays and percent inhibition of specific binding was determined. The specific ligand binding to the receptors is defined as the difference between the total binding and the nonspecific binding determined in the presence of an excess of unlabelled ligand. The results are expressed as a percent inhibition of control specific binding (100−((measured specific binding/control specific binding)×100)) obtained in the presence of test compounds.

Adrenergic α1 (ns) = assay: Binding α1 (ns) (aa); set-up: species or system rat
Description: as §1, §2

[1] = target: T2, Cholecystokinin CCK1 (CCKA) (h) (Homo sapiens, UniProt P32238); assay: Binding CCK1 (CCKA) (h) (ag); conditions: read-out: % Inhibition of Control Specific Binding @ 10 μM
T2 construct: expressed in transfected cells; host or cells: CHO cells
T2 sequence (P32238 1-428): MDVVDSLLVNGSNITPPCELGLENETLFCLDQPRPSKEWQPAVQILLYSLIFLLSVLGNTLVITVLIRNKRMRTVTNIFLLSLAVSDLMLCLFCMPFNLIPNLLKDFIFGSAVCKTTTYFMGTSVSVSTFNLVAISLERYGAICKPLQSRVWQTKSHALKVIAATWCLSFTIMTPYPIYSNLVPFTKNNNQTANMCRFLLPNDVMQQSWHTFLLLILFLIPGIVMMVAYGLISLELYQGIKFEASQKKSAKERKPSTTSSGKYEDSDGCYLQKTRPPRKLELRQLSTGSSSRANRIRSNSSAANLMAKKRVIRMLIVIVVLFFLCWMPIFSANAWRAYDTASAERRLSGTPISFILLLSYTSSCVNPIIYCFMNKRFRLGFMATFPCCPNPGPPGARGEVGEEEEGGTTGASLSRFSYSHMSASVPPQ
Description: as §1, §2

[2] = target: T3, Cholecystokinin CCK2 (CCKB) (h) (Homo sapiens, UniProt P32239); assay: Binding CCK2 (CCKB) (h) (ag); conditions: read-out: % Inhibition of Control Specific Binding @ 10 μM
T3 construct: expressed in transfected cells; host or cells: CHO cells
T3 sequence (P32239 1-447): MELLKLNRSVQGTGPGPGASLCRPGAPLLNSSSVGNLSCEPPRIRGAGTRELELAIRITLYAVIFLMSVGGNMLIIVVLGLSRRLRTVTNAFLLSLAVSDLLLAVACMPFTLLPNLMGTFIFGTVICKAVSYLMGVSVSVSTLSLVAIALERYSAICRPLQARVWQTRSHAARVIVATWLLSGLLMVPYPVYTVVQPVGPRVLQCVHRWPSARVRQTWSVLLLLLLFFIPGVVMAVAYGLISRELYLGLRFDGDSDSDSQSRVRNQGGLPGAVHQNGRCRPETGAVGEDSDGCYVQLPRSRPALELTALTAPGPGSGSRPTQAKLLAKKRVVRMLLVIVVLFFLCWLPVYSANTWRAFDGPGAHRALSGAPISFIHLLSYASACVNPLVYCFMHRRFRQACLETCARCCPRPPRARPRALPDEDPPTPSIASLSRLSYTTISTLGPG
Description: as §1, §2

Dopamine D2S (h) = target: T4, Dopamine D2S (h) (Homo sapiens, UniProt P14416); assay: Binding D2S (h) (aa); conditions: read-out: % Inhibition of Control Specific Binding @ 10 μM
T4 construct: expressed in transfected cells; host or cells: HEK-293 cells
Description: as §1, §2

Endothelin ETB (h) = target: T5, Endothelin ETB (h) (Homo sapiens, UniProt P24530); assay: Binding ETB (h) (ag); conditions: read-out: % Inhibition of Control Specific Binding @ 10 μM
T5 construct: expressed in transfected cells; host or cells: CHO cells
T5 sequence (P24530 27-442): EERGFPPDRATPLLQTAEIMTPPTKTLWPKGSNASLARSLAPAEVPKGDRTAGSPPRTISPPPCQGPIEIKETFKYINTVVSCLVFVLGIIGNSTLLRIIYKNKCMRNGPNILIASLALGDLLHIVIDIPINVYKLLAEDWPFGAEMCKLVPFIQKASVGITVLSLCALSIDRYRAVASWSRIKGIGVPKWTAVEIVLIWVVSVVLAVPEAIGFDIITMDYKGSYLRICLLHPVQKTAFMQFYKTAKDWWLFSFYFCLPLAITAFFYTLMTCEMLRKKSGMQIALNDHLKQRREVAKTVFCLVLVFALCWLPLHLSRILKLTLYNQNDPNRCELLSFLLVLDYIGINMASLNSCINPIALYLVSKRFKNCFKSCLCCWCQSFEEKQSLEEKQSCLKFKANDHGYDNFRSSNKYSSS
Description: as §1, §2

kainate = assay: Binding kainate (ag); set-up: species or system rat
Description: as §1, §2

GnRH (LH-RH) = target: T6, GnRH (LH-RH) (Rattus norvegicus, UniProt P30969); assay: Binding GnRH (LH-RH) (ag); conditions: read-out: % Inhibition of Control Specific Binding @ 10 μM
T6 construct: rat pituitary gland; from tissue; host or cells: rat pituitary gland
T6 sequence (P30969 1-327): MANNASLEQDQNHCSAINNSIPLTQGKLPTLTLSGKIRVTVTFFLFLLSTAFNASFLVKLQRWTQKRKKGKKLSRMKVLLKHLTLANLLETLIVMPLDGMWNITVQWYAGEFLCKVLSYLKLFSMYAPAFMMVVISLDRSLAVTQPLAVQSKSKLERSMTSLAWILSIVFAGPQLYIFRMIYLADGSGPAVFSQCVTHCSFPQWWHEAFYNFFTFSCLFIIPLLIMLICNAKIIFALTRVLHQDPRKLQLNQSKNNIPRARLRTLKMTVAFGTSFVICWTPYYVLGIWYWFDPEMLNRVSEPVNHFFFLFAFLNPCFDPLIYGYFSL
Description: as §1, §2

[3] = target: T7, N neuronal α-BGTX-insensitive (α4β2) (Rattus norvegicus, UniProt P09483+P12390); assay: Binding N neuronal α-BGTX-insensitive (α4β2) (ag); conditions: read-out: % Inhibition of Control Specific Binding @ 10 μM
T7 construct: rat cerebral cortex; from tissue; host or cells: rat cerebral cortex
Description: as §1, §2

NOP (ORL1) (h) = target: T8, NOP (ORL1) (h) (Homo sapiens, UniProt P41146); assay: Binding NOP (ORL1) (h) (ag); conditions: read-out: % Inhibition of Control Specific Binding @ 10 μM
T8 construct: expressed in transfected cells; host or cells: HEK-293 cells
Description: as §1, §2

[4] = test system: Ca^2+ channel (L, verapamil site) (phenylalkylamine); assay: Binding Ca2+ channel (L, verapamil site) (aa); set-up: species or system rat
Description: as §1, §2

ATPase (Na^+/K^+) = assay: Enzyme assay ATPase (Na+/K+); format: biochemical, porcine
Description: The enzyme assays provided below will be familiar to those skilled in the art.
Analysis and Expression of Results: The results are expressed as a percent of control specific activity ((measured specific activity/control specific activity)×100) obtained in the presence of the test compounds.

T1 sequence (P29274 whole entry): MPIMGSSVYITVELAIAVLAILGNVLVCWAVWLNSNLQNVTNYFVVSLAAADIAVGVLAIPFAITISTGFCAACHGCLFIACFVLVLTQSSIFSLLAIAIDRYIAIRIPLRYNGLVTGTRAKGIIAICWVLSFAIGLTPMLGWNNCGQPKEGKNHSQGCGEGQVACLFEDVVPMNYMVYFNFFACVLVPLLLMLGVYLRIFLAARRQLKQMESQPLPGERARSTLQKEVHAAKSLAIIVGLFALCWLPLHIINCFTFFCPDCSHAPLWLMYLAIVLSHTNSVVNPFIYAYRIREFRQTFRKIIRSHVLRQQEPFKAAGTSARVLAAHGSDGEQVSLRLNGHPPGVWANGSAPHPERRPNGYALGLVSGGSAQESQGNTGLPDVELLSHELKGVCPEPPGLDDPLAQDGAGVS
T4 sequence (P14416 1-414 isoform P14416-2): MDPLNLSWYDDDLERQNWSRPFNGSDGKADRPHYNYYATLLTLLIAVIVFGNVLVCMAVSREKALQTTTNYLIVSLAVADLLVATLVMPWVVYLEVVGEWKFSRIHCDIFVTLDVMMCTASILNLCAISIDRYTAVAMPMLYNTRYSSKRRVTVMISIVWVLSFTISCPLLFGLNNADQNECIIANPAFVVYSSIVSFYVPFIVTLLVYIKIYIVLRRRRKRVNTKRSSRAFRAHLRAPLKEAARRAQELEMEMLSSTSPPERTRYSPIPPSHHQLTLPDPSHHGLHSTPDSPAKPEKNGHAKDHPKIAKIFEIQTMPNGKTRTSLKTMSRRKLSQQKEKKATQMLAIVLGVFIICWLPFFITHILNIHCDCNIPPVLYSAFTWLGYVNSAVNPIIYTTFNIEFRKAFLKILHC
T7 sequence (P09483 31-630): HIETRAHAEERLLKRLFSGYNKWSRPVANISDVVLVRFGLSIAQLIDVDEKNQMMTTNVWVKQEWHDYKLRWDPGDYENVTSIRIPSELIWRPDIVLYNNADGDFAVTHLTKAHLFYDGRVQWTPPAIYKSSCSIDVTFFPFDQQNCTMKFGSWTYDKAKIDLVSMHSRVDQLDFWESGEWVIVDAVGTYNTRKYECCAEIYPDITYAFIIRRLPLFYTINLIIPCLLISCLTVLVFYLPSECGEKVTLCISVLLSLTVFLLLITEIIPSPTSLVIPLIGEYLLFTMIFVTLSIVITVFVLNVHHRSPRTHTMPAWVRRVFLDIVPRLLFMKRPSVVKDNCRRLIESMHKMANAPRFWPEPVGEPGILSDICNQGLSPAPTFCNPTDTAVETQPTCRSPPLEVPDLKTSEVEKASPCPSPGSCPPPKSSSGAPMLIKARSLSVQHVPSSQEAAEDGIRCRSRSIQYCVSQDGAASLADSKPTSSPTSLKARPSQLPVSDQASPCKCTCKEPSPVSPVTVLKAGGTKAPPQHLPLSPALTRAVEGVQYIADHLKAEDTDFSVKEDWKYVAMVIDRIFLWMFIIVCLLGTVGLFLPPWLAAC
T7 sequence (P12390 25-500): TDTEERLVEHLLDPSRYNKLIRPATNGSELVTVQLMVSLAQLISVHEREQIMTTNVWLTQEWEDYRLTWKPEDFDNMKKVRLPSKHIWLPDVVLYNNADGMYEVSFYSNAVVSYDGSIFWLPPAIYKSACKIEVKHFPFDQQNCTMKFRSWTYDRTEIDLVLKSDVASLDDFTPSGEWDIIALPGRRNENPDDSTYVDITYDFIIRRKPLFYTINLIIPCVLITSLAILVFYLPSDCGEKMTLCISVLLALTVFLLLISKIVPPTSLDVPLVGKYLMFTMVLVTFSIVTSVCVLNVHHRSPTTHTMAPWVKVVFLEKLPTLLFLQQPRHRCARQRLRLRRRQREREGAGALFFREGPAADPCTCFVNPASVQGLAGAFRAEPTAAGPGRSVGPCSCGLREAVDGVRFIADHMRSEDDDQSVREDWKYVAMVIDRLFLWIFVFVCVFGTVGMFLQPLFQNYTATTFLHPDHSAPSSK
T8 sequence (P41146 whole entry): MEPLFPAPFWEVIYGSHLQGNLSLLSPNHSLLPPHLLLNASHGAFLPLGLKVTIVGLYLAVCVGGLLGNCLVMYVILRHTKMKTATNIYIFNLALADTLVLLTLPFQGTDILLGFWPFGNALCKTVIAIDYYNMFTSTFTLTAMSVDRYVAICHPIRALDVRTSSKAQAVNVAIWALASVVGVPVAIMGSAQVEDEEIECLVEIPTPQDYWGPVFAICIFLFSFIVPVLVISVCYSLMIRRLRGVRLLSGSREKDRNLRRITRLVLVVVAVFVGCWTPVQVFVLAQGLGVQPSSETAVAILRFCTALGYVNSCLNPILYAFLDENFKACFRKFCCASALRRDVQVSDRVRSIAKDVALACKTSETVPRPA

SMILES: CC1(C)C(=O)N(c2ccc(C#N)c(C(F)(F)F)c2)C(=S)N1c1ccc(C(=O)O)c(F)c1 [(MI), 4-(3-(4-cyano-3-(trifluoromethyl)phenyl)-5,5-dimethyl-4-oxo-2-thioxoimidazolidin-1-yl)-2-fluorobenzoic acid]
- inhibition at 10 µM (Adenosine A2A (h)): 10%
- % Inhibition of Control Specific Binding @ 10 μM (Adrenergic α1 (ns)): −4%
- inhibition at 10 µM [1]: 47%
- inhibition at 10 µM [2]: -10%
- inhibition at 10 µM (Dopamine D2S (h)): -16%
- inhibition at 10 µM (Endothelin ETB (h)): -7%
- % Inhibition of Control Specific Binding @ 10 μM (kainate): −4%
- inhibition at 10 µM (GnRH (LH-RH)): -21%
- inhibition at 10 µM [3]: 0%
- inhibition at 10 µM (NOP (ORL1) (h)): -10%
- % Inhibition of Control Specific Binding @ 10 μM [4]: −2%
- % Inhibition of Control Values @ 10 μM (ATPase (Na^+/K^+)): 4%

SMILES: CC1(C)C(=O)N(c2ccc(C#N)c(C(F)(F)F)c2)C(=S)N1c1ccc(C(N)=O)c(F)c1 [(MII), 4-(3-(4-Cyano-3-(trifluoromethyl)phenyl)-5,5-dimethyl-4-oxo-2-thioxoimidazolidin-1-yl)-2-fluorobenzamide]
- inhibition at 10 µM (Adenosine A2A (h)): -5%
- % Inhibition of Control Specific Binding @ 10 μM (Adrenergic α1 (ns)): −7%
- inhibition at 10 µM [1]: 0%
- inhibition at 10 µM [2]: -18%
- inhibition at 10 µM (Dopamine D2S (h)): -8%
- inhibition at 10 µM (Endothelin ETB (h)): -4%
- % Inhibition of Control Specific Binding @ 10 μM (kainate): −21%
- inhibition at 10 µM (GnRH (LH-RH)): -51%
- inhibition at 10 µM [3]: -3%
- inhibition at 10 µM (NOP (ORL1) (h)): -4%
- % Inhibition of Control Specific Binding @ 10 μM [4]: −13%
- % Inhibition of Control Values @ 10 μM (ATPase (Na^+/K^+)): −10%

SMILES: CC1(C)C(=O)N(c2ccc(C#N)c(C(F)(F)F)c2)C(=O)N1c1ccc(C(N)=O)c(F)c1 [(MIII), 4-(3-(4-cyano-3-(trifluoromethyl)phenyl)-5,5-dimethyl-2,4-dioxoimidazolidin-1-yl)-2-fluorobenzamide]
- inhibition at 10 µM (Adenosine A2A (h)): 2%
- % Inhibition of Control Specific Binding @ 10 μM (Adrenergic α1 (ns)): −5%
- inhibition at 10 µM [1]: -14%
- inhibition at 10 µM [2]: -18%
- inhibition at 10 µM (Dopamine D2S (h)): -22%
- inhibition at 10 µM (Endothelin ETB (h)): 0%
- % Inhibition of Control Specific Binding @ 10 μM (kainate): −10%
- inhibition at 10 µM (GnRH (LH-RH)): 5%
- inhibition at 10 µM [3]: -11%
- inhibition at 10 µM (NOP (ORL1) (h)): 0%
- % Inhibition of Control Specific Binding @ 10 μM [4]: −1%
- % Inhibition of Control Values @ 10 μM (ATPase (Na^+/K^+)): 3%

SMILES: CNC(=O)c1ccc(N2C(=O)N(c3ccc(C#N)c(C(F)(F)F)c3)C(=O)C2(C)C)cc1F [(MIV), 4-(3-(4-cyano-3-(trifluoromethyl)phenyl)-5,5-dimethyl-2,4-dioxoimidazolidin-1-yl)-2-fluoro-N-methylbenzamide]
- inhibition at 10 µM (Adenosine A2A (h)): 3%
- % Inhibition of Control Specific Binding @ 10 μM (Adrenergic α1 (ns)): −3%
- inhibition at 10 µM [1]: 25%
- inhibition at 10 µM [2]: -12%
- inhibition at 10 µM (Dopamine D2S (h)): -17%
- inhibition at 10 µM (Endothelin ETB (h)): -3%
- % Inhibition of Control Specific Binding @ 10 μM (kainate): −8%
- inhibition at 10 µM (GnRH (LH-RH)): 0%
- inhibition at 10 µM [3]: -3%
- inhibition at 10 µM (NOP (ORL1) (h)): -2%
- % Inhibition of Control Specific Binding @ 10 μM [4]: −5%
- % Inhibition of Control Values @ 10 μM (ATPase (Na^+/K^+)): −13%
